Results published in patent US12410156B2, “Kinase inhibitors” (Insilico Medicine IP Limited, priority 2019, dated 2025).

Experiments:
MAP4K4 (h) = MAP4K4 (h) (Homo sapiens, UniProt O95819); test: MAP4K4 kinase assay (radiometric 33P-ATP filter assay); format: biochemical; settings: read-out: MAP4K4_IC50
Experimental: (§1) (specific activity and concentration as required). The reaction is initiated by the addition of the Mg/ATP mix. After incubation for 40 minutes at room temperature, the reaction is stopped by the addition of phosphoric acid to a concentration of 0.5%.

[1] = test system: Human hepatic stellate cell LX-2; test: LX-2 fibrosis assay, collagen production (Western blot); format: cell-based; settings: LX-2 cells, stimulated with 4 ng/mL TGF-b for 48 hours
Experimental: Human hepatic stellate cell LX-2 were grown in DMEM (Invitrogen, 11960) supplied with 1% MEM Non-Essential Amino Acids (Invitrogen, 11140-050), 2% fetal bovine serum (Hyclone, SV30087.03), Penicillin (100 U/mL)-streptomycin (100 μg/mL) (Millipore, TMS-AB2-C) and 2 mM L-Glutamine (Invitrogen, 25030-001). After the cells grew in 12-well plates for 24 hours, the cell culture medium was changed to the same as above except using 0.4% fetal bovine serum. After 20 hour growth in the reduced serum medium, the cells were treated with indicated doses of compounds for 30 minutes. Subsequently, the cells were stimulated with 4 ng/mL TGF-b (R&D Systems, 240-B-002) for 48 hours. The cells were rinsed twice with DPBS before being harvested with 100 μL RIPA buffer (Sigma, R0278) supplemented with protease inhibitor cocktail (Roche, 04693132001) at 4° C. The total protein in each sample was quantified using BCA Protein Assay Kit (Pierce™, 23227) and equal amount of total protein of each sample was subject to Western blot analysis. Antibodies used were mouse anti-α-Actin (SPM332) ([…]), mouse anti-CTGF (E5) (sc-365970), and mouse anti-collagen α1 (3G3) (sc-293182), from Santa Cruz Biotechnologies; and mouse anti-GAPDH (6C5) (EMD Millipore, MAB374).

TNIK = target: T1, TNIK (Homo sapiens, UniProt Q9UKE5); test: TNIK enzymatic assay (radiometric 33P-ATP filter assay); format: biochemical; settings: second table (TNIK, MAP4K4, Collagen Production Data); read-out: TNIK_IC50
T1 construct: purchased Eurofins (Kinase Profiler service protocol)
T1 sequence (Q9UKE5 whole entry): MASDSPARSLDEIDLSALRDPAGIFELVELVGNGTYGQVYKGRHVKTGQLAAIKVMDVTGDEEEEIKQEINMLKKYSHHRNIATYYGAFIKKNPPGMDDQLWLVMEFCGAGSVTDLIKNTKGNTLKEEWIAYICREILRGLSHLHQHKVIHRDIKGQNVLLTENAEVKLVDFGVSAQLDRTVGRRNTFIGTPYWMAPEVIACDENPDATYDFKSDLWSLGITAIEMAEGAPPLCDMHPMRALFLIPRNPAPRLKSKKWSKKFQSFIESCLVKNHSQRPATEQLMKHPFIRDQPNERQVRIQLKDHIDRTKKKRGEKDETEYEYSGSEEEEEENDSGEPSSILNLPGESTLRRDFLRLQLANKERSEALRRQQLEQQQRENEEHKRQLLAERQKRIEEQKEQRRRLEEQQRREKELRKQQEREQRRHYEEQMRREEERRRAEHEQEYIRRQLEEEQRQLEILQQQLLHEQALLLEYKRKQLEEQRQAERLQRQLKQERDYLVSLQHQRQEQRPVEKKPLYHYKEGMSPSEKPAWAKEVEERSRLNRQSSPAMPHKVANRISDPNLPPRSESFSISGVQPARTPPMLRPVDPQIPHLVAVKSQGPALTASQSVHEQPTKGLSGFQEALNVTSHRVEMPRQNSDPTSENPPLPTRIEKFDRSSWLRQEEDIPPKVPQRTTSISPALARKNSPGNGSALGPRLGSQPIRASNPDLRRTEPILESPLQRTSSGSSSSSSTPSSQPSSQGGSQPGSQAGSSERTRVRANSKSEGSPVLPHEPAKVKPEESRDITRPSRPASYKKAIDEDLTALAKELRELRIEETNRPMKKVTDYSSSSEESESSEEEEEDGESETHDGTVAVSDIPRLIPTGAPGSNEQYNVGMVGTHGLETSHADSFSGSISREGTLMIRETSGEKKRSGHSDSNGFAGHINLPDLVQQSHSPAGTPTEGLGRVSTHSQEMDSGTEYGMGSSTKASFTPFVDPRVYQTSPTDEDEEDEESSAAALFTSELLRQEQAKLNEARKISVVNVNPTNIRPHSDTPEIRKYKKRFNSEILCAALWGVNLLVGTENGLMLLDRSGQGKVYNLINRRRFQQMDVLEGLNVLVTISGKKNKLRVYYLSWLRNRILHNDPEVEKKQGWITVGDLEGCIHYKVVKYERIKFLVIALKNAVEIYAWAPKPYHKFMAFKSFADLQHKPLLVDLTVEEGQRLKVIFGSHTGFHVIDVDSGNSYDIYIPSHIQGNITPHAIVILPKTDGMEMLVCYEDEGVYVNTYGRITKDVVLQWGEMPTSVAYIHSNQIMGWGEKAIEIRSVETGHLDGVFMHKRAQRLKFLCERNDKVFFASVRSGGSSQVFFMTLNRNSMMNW
Experimental: as §1, with “The compounds were studied for function as TNIK inhibitors to generate the data of Table 1. […] (specific” for “(specific”

MAP4K4 (h), sequence (O95819 whole entry): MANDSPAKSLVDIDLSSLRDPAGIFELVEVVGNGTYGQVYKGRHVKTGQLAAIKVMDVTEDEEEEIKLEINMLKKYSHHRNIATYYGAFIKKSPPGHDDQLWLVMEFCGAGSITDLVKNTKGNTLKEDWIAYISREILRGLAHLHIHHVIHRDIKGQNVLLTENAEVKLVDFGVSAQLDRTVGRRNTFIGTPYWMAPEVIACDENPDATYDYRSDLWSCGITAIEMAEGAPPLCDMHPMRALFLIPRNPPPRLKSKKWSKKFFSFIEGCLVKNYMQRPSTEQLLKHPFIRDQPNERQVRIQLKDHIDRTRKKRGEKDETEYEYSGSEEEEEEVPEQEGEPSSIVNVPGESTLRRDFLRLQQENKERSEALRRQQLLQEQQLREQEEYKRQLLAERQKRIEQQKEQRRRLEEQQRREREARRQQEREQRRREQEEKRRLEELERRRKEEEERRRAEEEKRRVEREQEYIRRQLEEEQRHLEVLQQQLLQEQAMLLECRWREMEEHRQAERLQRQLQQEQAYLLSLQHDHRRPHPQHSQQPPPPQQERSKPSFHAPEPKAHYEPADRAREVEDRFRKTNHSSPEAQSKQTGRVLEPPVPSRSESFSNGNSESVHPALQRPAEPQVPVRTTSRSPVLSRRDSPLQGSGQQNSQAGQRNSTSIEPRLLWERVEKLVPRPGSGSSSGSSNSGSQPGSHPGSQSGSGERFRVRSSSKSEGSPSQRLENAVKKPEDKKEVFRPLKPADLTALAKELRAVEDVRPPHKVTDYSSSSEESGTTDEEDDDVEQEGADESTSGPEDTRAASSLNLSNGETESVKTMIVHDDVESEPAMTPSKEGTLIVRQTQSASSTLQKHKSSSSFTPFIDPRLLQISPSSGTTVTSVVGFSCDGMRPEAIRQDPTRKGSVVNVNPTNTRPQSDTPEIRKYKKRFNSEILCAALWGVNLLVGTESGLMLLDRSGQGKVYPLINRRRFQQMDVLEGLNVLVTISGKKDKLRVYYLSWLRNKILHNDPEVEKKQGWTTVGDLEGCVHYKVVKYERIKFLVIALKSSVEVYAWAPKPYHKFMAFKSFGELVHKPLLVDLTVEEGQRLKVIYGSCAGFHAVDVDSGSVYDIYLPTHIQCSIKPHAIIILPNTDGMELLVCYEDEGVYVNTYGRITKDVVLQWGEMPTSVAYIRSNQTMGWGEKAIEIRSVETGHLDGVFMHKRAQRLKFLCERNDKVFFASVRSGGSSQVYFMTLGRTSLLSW

## O=C(Nc1ccncc1F)c1ccc(-c2c(-c3ccc(F)cc3)ncn2[C@@H]2COC[C@H]2F)o1 (racemic) [Compound A-54, rac-5-(4-(4-fluorophenyl)-1-((3R,4S)-4-fluorotetrahydrofuran-3-yl)-1H-imidazol-5-yl)-N-(3-fluoropyridin-4-yl)furan-2-carboxamide]
MAP4K4 (h)
  IC50: 36.6 nM
[1]; LX-2, 48 h
  EC50: 0.983 µM
TNIK
  IC50: 60.7 nM

## CN1CCN(c2ccc(NC(=O)c3ccc(-c4c(-c5ccc(F)cc5)ncn4C4CCCC4)o3)c(F)c2)CC1 [Compound A-52, 4-(4-(5-(1-cyclopentyl-4-(4-fluorophenyl)-1H-imidazol-5-yl)furan-2-carboxamido)-3-fluorophenyl)-1-methylpiperazin-1-ium]
[1]
  EC50: 0.042 µM

## O=C(Nc1ccncc1F)c1ccc(-c2c(-c3ccc(F)cc3)ncn2C2COCC2F)o1 (centres unmarked) [Compound A-53, 5-(4-(4-fluorophenyl)-1-(4-fluorotetrahydrofuran-3-yl)-1H-imidazol-5-yl)-N-(3-fluoropyridin-4-yl)furan-2-carboxamide]
[1]; LX-2, 48 h
  EC50: 1.98 µM
